Measured values reported in patent US20100196311A1, “METHODS AND COMPOSITIONS CONTAINING mTOR INHIBITORS FOR ENHANCING IMMUNE RESPONSES” (priority 2009, published 2010).

Key:
[1] = system: OT-I cells; test: Type I effector functions (IFN-γ, CTL activity, Granzyme B) of OT-I cells, primary and secondary phase; type: cell-based, mouse
Procedure: FIG. 3. Sustained mTOR Activity Is Essential for Heritable Type I Effector Differentiation of CD8^+ T Cells. […] (D and E) OT-I cells were stimulated with Ag+B7.1 (±) IL-12 and rapamycin was added 12 hr after stimulation to evaluate cells for (D) S6K phosphorylation at 48 hr and (E) IFN-γ production at the primary and secondary phase. Experiments shown are representative of at least three (A and B) and two (C-E) independent experiments with similar outcomes. (Data are presented as mean±SEM.)
Stimulation of OT-1 Cells. Naive OT-I cells were stimulated with latex microspheres expressing H-2K^b/ovalbumin antigen and B7.1 according to known techniques. Naive OT-II cells were stimulated with anti-CD3-/anti-CD28-coated latex beads. In some experiments, the cell line derived from embryonic fibroblasts, namely, BOK (MEC.B7.SigOVA: expressing H-2K^b, OVAp and B7.1, were used as antigen-presenting cells to stimulate naive OT-I cells according to known techniques.
Evaluation of Secondary Antigen-Recall Responses In Vitro. For studying secondary antigen-recall response in vitro; OT-I cells harvested at 72 hr (primary) were washed thrice with medium and recultured (1×10^5/ml) for an additional 72 hr in a 24-well plate with IL-7 (10 ng/ml) only. At 144 hr the cells were harvested, washed thrice with medium, had numbers adjusted (5×10^5), and were restimulated with Ag/B7.1 only for an additional 24 hr (secondary stimulation). At 168 hr, the cells recovered were evaluated by flow cytometry and in vitro functional assay.
Because the presence of IL-12 during antigen stimulation augments mTOR activity and is deterministic for type I effector maturation, we analyzed whether sustained mTOR kinase activity is required for IL-12-programmed type I effector functions in OT-I cells. To do so, we stimulated naive OT-I cells with BOK±IL-12, and rapamycin and effector functions were analyzed from the primary and secondary activated OT-I pool. […] In addition, we observed a block in IL-12-induced IFN-γ production and CTL activity upon rapamycin treatment at 144 hr after primary stimulation.

[2] = system: T-bet; test: T-bet mRNA and protein expression in OT-I cells; type: cell-based, mouse
Procedure: FIG. 4. IL-12-Enhanced mTOR Phosphorylation Is Essential for T-bet-Determined Type I Effector Maturation of CD8^+ T Cells. (A-C) OT-I cells stimulated with Ag+B7.1 (±) IL-12 and rapamycin were evaluated for (A) mRNA for T-bet at the indicated time points by RT-PCR, (B) T-bet protein expression at the indicated time-points by ICS, and (C) T-bet protein expression by ICS before and after antigen recall. **p<0.0035; ***p<0.0005. (D) WT and Tbx21^−1− OT-I cells were stimulated with Ag+B7.1 (±) IL-12 and evaluated for IFN-γ production at the primary and secondary phase. ***p<0.0001. (E and F) OT-I cells stimulated with Ag+B7.1 (±) IL-12 and rapamycin were transduced with T-bet-ER retroviral vector (±) 4-HT (10 nM) and evaluated by ICS for (E) T-bet protein expression by ICS and (F) IFN-γ at secondary phase (168 hr). (G and H) OT-I cells stimulated with Ag+B7.1 (±) insulin (1 U/ml) and rapamycin were evaluated by ICS for (G) S6K phosphorylation at 48 hr and (H) T-bet expression at 72 hr. Experiments shown are representative of at least three (A, B, D, E, and F) and two (C, G, and H) independent experiments with similar outcomes. (Data are presented as mean±SEM).
Retroviral Transduction and T-Bet Induction. T-bet-ER RV (Estrogen Responsive Retro Viral Vector) was cotransfected into Platinum-E cells together with the retroviral packaging vector pCL-Eco using LipoD293 DNA in vitro transfection reagent (SignaGen Laboratories) following the manufacturer's instructions. The medium was replaced the following day, and retroviral supernatant was collected 3 days after transfection. For transduction, naive OT-I cells stimulated for 24 hr, were suspended in retroviral supernatant containing polybrene (8 μg/ml; Sigma-Aldrich), and were spin-transduced at 2200 rpm for 90 min at 30° C. After spin-transduction, cells were cultured in fresh medium containing the same polarizing milieu as before, along with the addition of 4-HT (10 nM). At the end of 72 hr after initial stimulation, cells were washed thrice and maintained in the absence of any stimulation but in the presence of 4-HT and IL-7 (10 ng/ml).
Because the sustained expression of T-bet is necessary and sufficient for imprinting type I effector cell fate (Matsuda et al., 2007) and mTOR inhibition reversed IL-12 imprinted type I effector maturation in OT-I cells (FIG. 3), we next sought to determine whether rapamycin treatment affects T-bet expression in OT-I cells by performing kinetic analysis of T-bet mRNA expression (FIG. 4A). […] Moreover, inhibition of mTOR activity at 12 hr was also able to achieve loss in T-bet expression, similar to the observed loss in type I effector maturation (FIG. 3E).

[3] = IFN-α, Ag+B7.1-stimulated OT-I cells

| Molecule | IFN-γ production [1, 3] | T-bet expression [2, 3] | IFN-γ production and CTL activity ([1]; IL-12 added to BOK-stimulated OT-I cells, 72 hr) | Ag+B7.1-induced T-bet expression ([2]; IL-12 addition, 24-96 hr) |
| --- | --- | --- | --- | --- |
| IFN-α | increases | unable to enhance | – | – |
| IL-12: interleukin-12, cytokine (signal 3) (protein, UniProt P43431 23-215; P43432 23-335, looked up) Interleukin-12 subunit alpha: RVIPVSGPARCLSQSRNLLKTTDDMVKTAREKLKHYSCTAEDIDHEDITRDQTSTLKTCLPLELHKNESCLATRETSSTTRGSCLPPQKTSLMMTLCLGSIYEDLKMYQTEFQAINAALQNHNHQQIILDKGMLVAIDELMQSLNHNGETLRQKPPVGEADPYRVKMKLCILLHAFSTRVVTINRVMGYLSSA Interleukin-12 subunit beta: MWELEKDVYVVEVDWTPDAPGETVNLTCDTPEEDDITWTSDQRHGVIGSGKTLTITVKEFLDAGQYTCHKGGETLSHSHLLLHKKENGIWSTEILKNFKNKTFLKCEAPNYSGRFTCSWLVQRNMDLKFNIKSSSSSPDSRAVTCGMASLSAEKVTLDQRDYEKYSVSCQEDVTCPTAEETLPIELALEARQQNKYENYSTSFFIRDIIKPDPPKNLQMKPLKNSQVEVSWEYPDSWSTPHSYFSLKFFVRIQRKKEKMKETEEGCNQKGAFLVEKTSTEVQCKGGNVCVQAQDRYYNSSCSKWACVPCRVRS | – | – | robust | enhanced and sustained |
